According to US4112228A, “7-(D-α-Hydroxy-2-arylacetamido)-3-(2-carboxyalkyl-2,3-dihydro-s-tri azolo-[4,3-b]pyridazin-3-on-6-ylthiomethyl)-3-cephem-4-carboxylic acids and derivatives” (priority 1977, dated 1978):
Read-outs that look alike come from different tables or passages of the source.

How the values were obtained:
Pr. mirabilis = assay: MIC by Steers' agar dilution method; settings: Proteus mirabilis
[1] = tested on: E. cloacae A20464 (El-19); assay: Standard experimental infection in mice; format: in vivo; settings: Run C-811
Serr. marcescens = assay: MIC by Steers' agar dilution method; settings: Serratia marcescens
Kl. pneumoniae = assay: MIC by Steers' agar dilution method; format: cell-based; settings: Klebsiella pneumoniae
Ps. aeruginosa = assay: MIC by Steers' agar dilution method; settings: Pseudomonas aeruginosa
Sal. typhosa = assay: MIC by Steers' agar dilution method; format: cell-based; settings: MHA
S. pyogenes = assay: MIC by Steers' agar dilution method
S. paratyphi = assay: MIC by Steers' agar dilution method; settings: Salmonella enterica
Pr. morganii = assay: MIC by Steers' agar dilution method; settings: Morganella morganii
D. pneumoniae = assay: MIC by Steers' agar dilution method
K. pneumoniae A9977 = assay: Standard experimental infection in mice; format: in vivo; settings: for ED50: Klebsiella pneumoniae, A9977, read-out: PD50
S. typhimurium = assay: MIC by Steers' agar dilution method; settings: Salmonella enterica
Urinary recovery in rats = format: in vivo; settings: rat, urine, sc 10 mg./kg., 0-24 Hrs.
[2] = strain not given (1st of 2), MHA, Example 10
[3] = strain not named (2nd of 2), MHA, Example 10

O=C(O)Cn1nc2ccc(SCC3=C(C(=O)O)N4C(=O)C(NC(=O)[C@H](O)c5ccccc5)[C@H]4SC3)nn2c1=O (stereo partly drawn) [BB-S488, 7-(D-Mandelamido)-3-(2-carboxymethyl-2,3-dihydro-s-triazolo[4,3-b]pyridazin-3-on-6-ylthiomethyl)-3-cephem-4-carboxylic Acid]
25 µg/mL: MIC (Serr. marcescens; Sm-1 A20019, MHA, Table 3) | MIC (Kl. pneumoniae; Kp-8 A20680, MHA, Table 3)
1.6 µg/mL: MIC (Pr. mirabilis; Pm-6 A21222, MHA, Table 3) | MIC (Kl. pneumoniae; Kp-11 A20330, MHA, Table 3)
12.5 µg/mL: MIC (Kl. pneumoniae; Kp-9 A20636, MHA, Table 3)
100 µg/mL: MIC (Serr. marcescens; A20019, MHA, Table 1) | MIC (Serr. marcescens; Sm-3 A20336, NA, Table 4) | MIC (Ps. aeruginosa; Pa-3 A9930, NA, Table 4)
> 100 µg/mL: MIC (Serr. marcescens; MHA, Example 10) | MIC (Serr. marcescens; Sm-1 A20019 (β-lactamase), HIA, Table 4) | MIC (Serr. marcescens; Sm-1 A20019 (β-lactamase), MHA, Table 4) | MIC (Serr. marcescens; Sm-1 A20019 (β-lactamase), NA, Table 4) | MIC (Serr. marcescens; Sm-3 A20336, HIA, Table 4) | MIC (Ps. aeruginosa; A9843, MHA, Table 1) | MIC (Ps. aeruginosa; A9930, MHA, Table 1) | MIC (Ps. aeruginosa; Pa-3 A9930, HIA, Table 4) | MIC (Ps. aeruginosa; Pa-3 A9930, MHA, Table 4) | MIC (Ps. aeruginosa; [2]) | MIC (Ps. aeruginosa; [3]) | MIC (Pr. morganii; A9553, MHA, Table 1) | MIC (Pr. morganii; Pg-1 A9553 (β-lactamase), HIA, Table 4) | MIC (Pr. morganii; Pg-1 A9553 (β-lactamase), MHA, Table 4) | MIC (Pr. morganii; Pg-1 A9553 (β-lactamase), NA, Table 4) | MIC (Pr. morganii; Pg-1 A9553, MHA, Table 3) | MIC (Pr. morganii; [2])
4/5: No. of survivors/No. tested ([1]; 1.6 mg./kg.) | No. of survivors/No. tested (K. pneumoniae A9977; 0.4 mg./kg., Table 6) | No. of survivors/No. tested (K. pneumoniae A9977; Run C-805, 3×10^3 LD50, single sc, 0.4 mg./kg.)
0.05 µg/mL: MIC (Pr. mirabilis; A9554, MHA, Table 1) | MIC (Pr. mirabilis; [2]) | MIC (Pr. mirabilis; [3]) | MIC (Kl. pneumoniae; A9977, MHA, Table 1) | MIC (Sal. typhosa; A9498, Table 1) | MIC (Sal. typhosa; Example 10)
3.1 µg/mL: MIC (Serr. marcescens; Sm-2 A20335, MHA, Table 3) | MIC (Serr. marcescens; Sm-5 A20222, MHA, Table 3) | MIC (Kl. pneumoniae; A9678, MHA, Table 1) | MIC (Kl. pneumoniae; Kp-2 A9678, MHA, Table 3) | MIC (Kl. pneumoniae; strain not named (1st of 4), MHA, Example 10)
0/5: No. of survivors/No. tested (K. pneumoniae A9977; 0.1 mg./kg., Table 6) | No. of survivors/No. tested (K. pneumoniae A9977; Run C-805, 3×10^3 LD50, single sc, 0.1 mg./kg.)
2/5: No. of survivors/No. tested ([1]; 0.4 mg./kg.)
0.2 µg/mL: MIC (Pr. mirabilis; Pm-2 A9900, HIA, Table 4) | MIC (Pr. mirabilis; Pm-2 A9900, MHA, Table 3) | MIC (Pr. mirabilis; Pm-2 A9900, MHA, Table 4) | MIC (Pr. mirabilis; Pm-4 A20454, MHA, Table 3) | MIC (Kl. pneumoniae; A9867, MHA, Table 1) | MIC (Kl. pneumoniae; A15130, MHA, Table 1) | MIC (Kl. pneumoniae; Kp-3 A9977, HIA, Table 4) | MIC (Kl. pneumoniae; Kp-3 A9977, MHA, Table 4) | MIC (Kl. pneumoniae; Kp-4 A15130, MHA, Table 3) | MIC (Kl. pneumoniae; strain not named (4th of 4), MHA, Example 10) | MIC (S. pyogenes) | MIC (Pr. morganii; Pg-2 A20031, HIA, Table 4) | MIC (Pr. morganii; Pg-2 A20031, MHA, Table 3) | MIC (Pr. morganii; Pg-2 A20031, NA, Table 4) | MIC (Pr. morganii; Pg-7 A20457, MHA, Table 3) | MIC (Pr. morganii; [3]) | MIC (D. pneumoniae; Dp-2 Type I Neufeld, MHA, Table 2) | MIC (D. pneumoniae; Dp-3 Type III, MHA, Table 2) | MIC (D. pneumoniae; Dp-4 A9585, MHA, Table 2) | MIC (D. pneumoniae; Dp-5 A15069, MHA, Table 2) | MIC (D. pneumoniae; Dp-6 A20167, MHA, Table 2) | MIC (D. pneumoniae; Dp-7 A20759, MHA, Table 2) | MIC (D. pneumoniae; Dp-8 A20769, MHA, Table 2) | MIC (D. pneumoniae; Dp-9 A20770, MHA, Table 2) | MIC (D. pneumoniae; Streptococcus pneumoniae)
6.3 µg/mL: MIC (Serr. marcescens; Sm-3 A20336, MHA, Table 3) | MIC (Serr. marcescens; Sm-4 A20442, MHA, Table 3) | MIC (Serr. marcescens; Sm-6 A20460, MHA, Table 3) | MIC (Serr. marcescens; Sm-9 A20333, MHA, Table 3) | MIC (Serr. marcescens; Sm-10 A20334, MHA, Table 3) | MIC (Serr. marcescens; Sm-11 A20459, MHA, Table 3) | MIC (Serr. marcescens; Sm-12 A20461, MHA, Table 3) | MIC (Kl. pneumoniae; Kp-10 A20328, MHA, Table 3) | MIC (Kl. pneumoniae; Kp-12 A21228, MHA, Table 3)
5/5: No. of survivors/No. tested ([1]; 6.3 mg./kg.) | No. of survivors/No. tested ([1]; 25 mg./kg.) | No. of survivors/No. tested ([1]; 100 mg./kg.) | No. of survivors/No. tested (K. pneumoniae A9977; 1.6 mg./kg., Table 6) | No. of survivors/No. tested (K. pneumoniae A9977; 6.3 mg./kg., Table 6) | No. of survivors/No. tested (K. pneumoniae A9977; 25 mg./kg., Table 6) | No. of survivors/No. tested (K. pneumoniae A9977; Run C-805, 3×10^3 LD50, single sc, 1.6 mg./kg.) | No. of survivors/No. tested (K. pneumoniae A9977; Run C-805, 3×10^3 LD50, single sc, 6.3 mg./kg.) | No. of survivors/No. tested (K. pneumoniae A9977; Run C-805, 3×10^3 LD50, single sc, 25 mg./kg.)
0.8 µg/mL: MIC (Serr. marcescens; Sm-3 A20336, MHA, Table 4) | MIC (Kl. pneumoniae; Kp-4 A15130, HIA, Table 4) | MIC (Kl. pneumoniae; Kp-4 A15130, NA, Table 4) | MIC (Pr. morganii; Pg-3 A9636, MHA, Table 3) | MIC (Pr. morganii; Pg-6 A20455 (β-lactamase), HIA, Table 4) | MIC (Pr. morganii; Pg-9 A15149, MHA, Table 3)
0.26 mg/kg: ED50 (K. pneumoniae A9977; Run C-805, 3×10^3 LD50, single sc) | ED50 (K. pneumoniae A9977; Table 6)
38.8%: dose excreted at 24 h (Urinary recovery in rats)
0.4 µg/mL: MIC (Pr. mirabilis; Pm-3 A20119, MHA, Table 3) | MIC (Kl. pneumoniae; Kp-3 A9977, NA, Table 4) | MIC (Kl. pneumoniae; Kp-4 A15130, MHA, Table 4) | MIC (Kl. pneumoniae; Kp-7 A9867, MHA, Table 3) | MIC (Kl. pneumoniae; strain not named (3rd of 4), MHA, Example 10) | MIC (S. pyogenes; Sp-2 Dick, MHA, Table 2) | MIC (S. pyogenes; Sp-3 A9604, MHA, Table 2) | MIC (S. pyogenes; Sp-5 A15040, MHA, Table 2) | MIC (S. pyogenes; Sp-6 A20066, MHA, Table 2) | MIC (S. pyogenes; Sp-7 Dig 7, MHA, Table 2) | MIC (S. pyogenes; Sp-8 A15041, MHA, Table 2) | MIC (S. pyogenes; Sp-9 A20201, MHA, Table 2) | MIC (S. pyogenes; Sp-10 A20202, MHA, Table 2) | MIC (S. pyogenes; Streptococcus pyogenes) | MIC (Pr. morganii; Pg-6 A20455 (β-lactamase), MHA, Table 4) | MIC (Pr. morganii; Pg-6 A20455 (β-lactamase), NA, Table 4) | MIC (Pr. morganii; Pg-6 A20455, MHA, Table 3)
0.54 mg/kg: ED50 ([1]; Enterobacter cloacae, read-out: PD50)
0.1 µg/mL: MIC (Pr. mirabilis; A9900, MHA, Table 1) | MIC (Pr. mirabilis; Pm-1 A9554, HIA, Table 4) | MIC (Pr. mirabilis; Pm-1 A9554, MHA, Table 3) | MIC (Pr. mirabilis; Pm-1 A9554, MHA, Table 4) | MIC (Pr. mirabilis; Pm-1 A9554, NA, Table 4) | MIC (Pr. mirabilis; Pm-2 A9900, NA, Table 4) | MIC (Pr. mirabilis; Pm-5 A9702, MHA, Table 3) | MIC (Kl. pneumoniae; Kp-1 D11, MHA, Table 3) | MIC (Kl. pneumoniae; Kp-3 A9977, MHA, Table 3) | MIC (Kl. pneumoniae; strain not named (2nd of 4), MHA, Example 10) | MIC (S. paratyphi) | MIC (Pr. morganii; A20031, MHA, Table 1) | MIC (Pr. morganii; Pg-2 A20031, MHA, Table 4) | MIC (Pr. morganii; Pg-5 A15166, MHA, Table 3) | MIC (Pr. morganii; Pg-8 A15153, MHA, Table 3) | MIC (S. typhimurium)
